Test results reported in ChEMBL document CHEMBL1149912, “Chemical fragments as foundations for understanding target space and activity prediction” (J Med Chem, 2008).

Assays:
[1] = molecular target: T1, Renin (Homo sapiens) (UniProt P00797); test: Inhibition of REN
T1 sequence (whole entry): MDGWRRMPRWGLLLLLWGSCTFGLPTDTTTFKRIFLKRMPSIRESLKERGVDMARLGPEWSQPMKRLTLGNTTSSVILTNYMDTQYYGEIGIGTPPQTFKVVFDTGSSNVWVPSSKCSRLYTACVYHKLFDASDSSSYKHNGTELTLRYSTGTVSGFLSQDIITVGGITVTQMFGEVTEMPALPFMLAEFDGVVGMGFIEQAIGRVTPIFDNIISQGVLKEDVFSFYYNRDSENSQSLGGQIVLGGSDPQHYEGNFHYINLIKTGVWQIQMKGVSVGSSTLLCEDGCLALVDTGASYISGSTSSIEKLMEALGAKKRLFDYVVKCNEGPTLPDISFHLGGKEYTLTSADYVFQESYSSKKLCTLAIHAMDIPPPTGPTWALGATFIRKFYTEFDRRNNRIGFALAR

[2] = molecular target: T2, Cholecystokinin receptor type A (Homo sapiens) (UniProt P32238); test: Inhibition of CCKAR
T2 sequence (whole entry): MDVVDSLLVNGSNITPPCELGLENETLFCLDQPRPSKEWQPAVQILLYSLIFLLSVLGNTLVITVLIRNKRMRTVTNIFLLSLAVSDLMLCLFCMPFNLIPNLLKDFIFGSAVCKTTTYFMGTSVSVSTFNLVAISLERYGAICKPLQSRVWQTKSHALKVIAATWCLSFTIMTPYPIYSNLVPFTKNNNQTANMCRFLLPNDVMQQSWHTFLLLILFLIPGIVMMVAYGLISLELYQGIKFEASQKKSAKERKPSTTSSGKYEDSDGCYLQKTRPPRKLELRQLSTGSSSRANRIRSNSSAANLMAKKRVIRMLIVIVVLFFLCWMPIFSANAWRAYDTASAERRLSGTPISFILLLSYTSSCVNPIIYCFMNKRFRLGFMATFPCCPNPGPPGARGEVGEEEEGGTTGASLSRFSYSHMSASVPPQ

[3] = molecular target: Voltage-dependent N-type calcium channel subunit alpha-1B (Homo sapiens) (UniProt Q00975); test: Inhibition of CACNA1B
Voltage-dependent N-type calcium channel subunit alpha-1B (Homo sapiens), sequence (Q00975 whole entry, looked up): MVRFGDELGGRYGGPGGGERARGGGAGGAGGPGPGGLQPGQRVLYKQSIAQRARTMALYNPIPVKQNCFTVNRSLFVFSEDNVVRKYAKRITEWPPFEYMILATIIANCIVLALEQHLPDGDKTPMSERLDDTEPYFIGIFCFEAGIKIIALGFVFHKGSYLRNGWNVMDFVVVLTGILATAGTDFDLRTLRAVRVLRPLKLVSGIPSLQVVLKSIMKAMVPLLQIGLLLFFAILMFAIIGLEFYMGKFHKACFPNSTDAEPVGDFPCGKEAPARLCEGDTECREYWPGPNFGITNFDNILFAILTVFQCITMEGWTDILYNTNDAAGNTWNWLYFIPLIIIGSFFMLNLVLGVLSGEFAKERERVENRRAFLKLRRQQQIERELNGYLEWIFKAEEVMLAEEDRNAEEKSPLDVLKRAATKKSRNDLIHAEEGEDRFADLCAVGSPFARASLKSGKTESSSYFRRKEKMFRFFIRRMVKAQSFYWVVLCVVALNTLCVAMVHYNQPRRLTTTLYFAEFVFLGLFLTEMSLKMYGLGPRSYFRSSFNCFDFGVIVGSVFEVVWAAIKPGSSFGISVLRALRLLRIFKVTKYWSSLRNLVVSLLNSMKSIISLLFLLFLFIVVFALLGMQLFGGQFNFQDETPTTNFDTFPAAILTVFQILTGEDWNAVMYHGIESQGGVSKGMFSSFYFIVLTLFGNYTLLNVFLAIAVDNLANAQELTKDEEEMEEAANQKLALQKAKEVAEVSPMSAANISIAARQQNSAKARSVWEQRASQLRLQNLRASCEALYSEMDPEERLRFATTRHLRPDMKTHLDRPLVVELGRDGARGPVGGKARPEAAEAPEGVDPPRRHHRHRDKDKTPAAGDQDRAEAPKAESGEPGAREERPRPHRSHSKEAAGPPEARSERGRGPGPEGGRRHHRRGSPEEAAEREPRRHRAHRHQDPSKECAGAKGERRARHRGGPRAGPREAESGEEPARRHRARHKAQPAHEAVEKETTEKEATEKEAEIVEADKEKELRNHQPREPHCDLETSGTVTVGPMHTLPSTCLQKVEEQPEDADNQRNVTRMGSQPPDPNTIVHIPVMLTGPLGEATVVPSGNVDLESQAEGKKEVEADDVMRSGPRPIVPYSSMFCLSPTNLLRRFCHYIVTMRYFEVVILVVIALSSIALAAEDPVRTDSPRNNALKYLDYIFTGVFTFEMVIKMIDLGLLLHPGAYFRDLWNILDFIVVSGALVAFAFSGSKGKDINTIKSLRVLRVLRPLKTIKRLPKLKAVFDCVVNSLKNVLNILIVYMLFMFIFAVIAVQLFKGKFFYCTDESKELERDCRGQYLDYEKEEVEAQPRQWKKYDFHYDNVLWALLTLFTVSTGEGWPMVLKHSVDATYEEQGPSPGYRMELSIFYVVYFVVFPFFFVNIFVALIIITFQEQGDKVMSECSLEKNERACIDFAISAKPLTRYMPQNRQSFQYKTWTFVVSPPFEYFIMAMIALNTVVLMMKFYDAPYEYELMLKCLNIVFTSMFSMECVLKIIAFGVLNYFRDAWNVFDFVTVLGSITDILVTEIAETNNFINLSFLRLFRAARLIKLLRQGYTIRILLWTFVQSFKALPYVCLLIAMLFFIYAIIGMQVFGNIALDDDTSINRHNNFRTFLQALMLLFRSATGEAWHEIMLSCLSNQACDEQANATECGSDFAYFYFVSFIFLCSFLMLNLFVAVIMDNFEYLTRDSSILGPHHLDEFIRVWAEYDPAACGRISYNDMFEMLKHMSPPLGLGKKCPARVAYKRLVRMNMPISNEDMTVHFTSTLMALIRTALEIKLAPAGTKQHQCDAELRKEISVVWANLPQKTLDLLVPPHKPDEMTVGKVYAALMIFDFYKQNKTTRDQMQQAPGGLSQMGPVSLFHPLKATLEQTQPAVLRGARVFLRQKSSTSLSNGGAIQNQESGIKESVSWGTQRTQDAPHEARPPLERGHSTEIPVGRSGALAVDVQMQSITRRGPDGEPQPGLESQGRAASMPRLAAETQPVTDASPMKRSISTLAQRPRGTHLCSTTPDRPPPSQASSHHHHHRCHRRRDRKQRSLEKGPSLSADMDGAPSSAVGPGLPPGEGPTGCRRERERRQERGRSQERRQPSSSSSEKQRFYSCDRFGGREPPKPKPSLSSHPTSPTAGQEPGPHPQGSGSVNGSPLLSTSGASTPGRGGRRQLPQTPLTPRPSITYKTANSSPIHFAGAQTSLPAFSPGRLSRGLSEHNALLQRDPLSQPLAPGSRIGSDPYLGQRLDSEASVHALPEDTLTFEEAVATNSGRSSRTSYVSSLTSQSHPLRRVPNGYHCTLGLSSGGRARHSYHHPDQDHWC

[4] = molecular target: Prothrombin (Homo sapiens) (UniProt P00734); test: Inhibition of thrombin
[5] = molecular target: Muscarinic acetylcholine receptor M3 (Homo sapiens) (UniProt P20309); test: Inhibition of CHRM3
Muscarinic acetylcholine receptor M3 (Homo sapiens), sequence (P20309 whole entry, looked up): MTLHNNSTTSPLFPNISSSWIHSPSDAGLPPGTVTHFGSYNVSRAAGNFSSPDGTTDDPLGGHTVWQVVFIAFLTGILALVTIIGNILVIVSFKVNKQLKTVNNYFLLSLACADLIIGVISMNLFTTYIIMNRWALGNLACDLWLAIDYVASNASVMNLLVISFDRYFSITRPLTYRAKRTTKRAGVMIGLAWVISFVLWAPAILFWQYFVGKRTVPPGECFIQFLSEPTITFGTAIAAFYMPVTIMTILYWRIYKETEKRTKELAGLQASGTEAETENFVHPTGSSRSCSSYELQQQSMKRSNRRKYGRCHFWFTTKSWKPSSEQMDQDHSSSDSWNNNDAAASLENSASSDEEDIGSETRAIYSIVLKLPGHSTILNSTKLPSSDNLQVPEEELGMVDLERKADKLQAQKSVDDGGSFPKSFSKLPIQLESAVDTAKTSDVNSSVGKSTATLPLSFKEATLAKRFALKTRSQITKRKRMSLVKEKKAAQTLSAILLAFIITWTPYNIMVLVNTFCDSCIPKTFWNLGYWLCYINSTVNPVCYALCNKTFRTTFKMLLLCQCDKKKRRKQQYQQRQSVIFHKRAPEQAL

[6] = molecular target: Neprilysin (Homo sapiens) (UniProt P08473); test: Inhibition of MME
Neprilysin (Homo sapiens), sequence (P08473 whole entry): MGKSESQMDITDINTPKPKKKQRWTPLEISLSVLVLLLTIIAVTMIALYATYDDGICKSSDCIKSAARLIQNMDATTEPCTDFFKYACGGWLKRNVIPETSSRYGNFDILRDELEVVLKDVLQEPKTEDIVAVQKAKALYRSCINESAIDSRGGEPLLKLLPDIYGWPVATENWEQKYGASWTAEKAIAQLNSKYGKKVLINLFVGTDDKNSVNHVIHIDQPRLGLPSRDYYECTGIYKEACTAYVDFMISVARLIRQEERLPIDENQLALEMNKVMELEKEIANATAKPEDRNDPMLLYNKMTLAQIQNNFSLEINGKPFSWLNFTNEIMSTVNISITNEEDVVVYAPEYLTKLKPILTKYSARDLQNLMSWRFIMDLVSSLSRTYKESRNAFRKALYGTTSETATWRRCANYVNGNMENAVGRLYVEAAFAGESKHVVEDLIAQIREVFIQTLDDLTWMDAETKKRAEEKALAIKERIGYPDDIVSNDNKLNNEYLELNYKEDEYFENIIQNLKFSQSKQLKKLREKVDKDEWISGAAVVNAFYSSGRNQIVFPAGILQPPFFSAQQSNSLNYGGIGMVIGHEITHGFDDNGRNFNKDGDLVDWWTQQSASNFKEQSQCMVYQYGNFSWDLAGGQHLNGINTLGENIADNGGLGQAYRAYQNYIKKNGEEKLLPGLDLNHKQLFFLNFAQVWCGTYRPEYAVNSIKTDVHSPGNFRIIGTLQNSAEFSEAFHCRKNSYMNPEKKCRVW

[7] = molecular target: Leukotriene B4 receptor 1 (Homo sapiens) (UniProt Q15722); test: Inhibition of LTB4R
Leukotriene B4 receptor 1 (Homo sapiens), sequence (Q15722 whole entry): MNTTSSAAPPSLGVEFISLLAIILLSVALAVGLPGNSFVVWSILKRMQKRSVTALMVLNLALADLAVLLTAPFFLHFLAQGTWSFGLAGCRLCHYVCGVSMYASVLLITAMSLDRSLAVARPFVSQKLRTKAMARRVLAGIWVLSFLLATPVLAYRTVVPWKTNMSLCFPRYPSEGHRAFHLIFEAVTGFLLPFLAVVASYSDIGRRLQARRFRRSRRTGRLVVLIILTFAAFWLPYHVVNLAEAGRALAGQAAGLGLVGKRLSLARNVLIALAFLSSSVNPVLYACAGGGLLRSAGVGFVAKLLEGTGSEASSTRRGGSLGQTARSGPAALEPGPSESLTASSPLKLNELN

[8] = molecular target: Metabotropic glutamate receptor 2 (Homo sapiens) (UniProt Q14416); test: Inhibition of GRM2
[9] = molecular target: Stromelysin-1 (Homo sapiens) (UniProt P08254); test: Inhibition of MMP3
Stromelysin-1 (Homo sapiens), sequence (P08254 100-477 limits assumed): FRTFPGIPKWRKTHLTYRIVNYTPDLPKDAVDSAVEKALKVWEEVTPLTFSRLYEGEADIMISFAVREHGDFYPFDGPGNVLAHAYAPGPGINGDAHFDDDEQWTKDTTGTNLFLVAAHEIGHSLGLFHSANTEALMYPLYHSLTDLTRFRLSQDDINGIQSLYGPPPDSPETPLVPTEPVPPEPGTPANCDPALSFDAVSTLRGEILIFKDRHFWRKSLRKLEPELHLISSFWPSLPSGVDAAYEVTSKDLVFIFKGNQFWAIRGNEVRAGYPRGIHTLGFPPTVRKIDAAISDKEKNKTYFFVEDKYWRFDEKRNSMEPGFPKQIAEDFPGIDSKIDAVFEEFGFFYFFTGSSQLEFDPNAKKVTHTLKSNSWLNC

[10] = tested on: NMDA receptor subunit 1, GRIN1; test: Inhibition of GRIN1
[11] = molecular target: Kappa-type opioid receptor (Homo sapiens) (UniProt P41145); test: Inhibition of OPRK1
[12] = molecular target: Cathepsin B (Homo sapiens) (UniProt P07858); test: Inhibition of CTSB
[13] = molecular target: T3, Prostaglandin D2 receptor 2 (Homo sapiens) (UniProt Q9Y5Y4); test: Inhibition of GPR44
T3 sequence (whole entry): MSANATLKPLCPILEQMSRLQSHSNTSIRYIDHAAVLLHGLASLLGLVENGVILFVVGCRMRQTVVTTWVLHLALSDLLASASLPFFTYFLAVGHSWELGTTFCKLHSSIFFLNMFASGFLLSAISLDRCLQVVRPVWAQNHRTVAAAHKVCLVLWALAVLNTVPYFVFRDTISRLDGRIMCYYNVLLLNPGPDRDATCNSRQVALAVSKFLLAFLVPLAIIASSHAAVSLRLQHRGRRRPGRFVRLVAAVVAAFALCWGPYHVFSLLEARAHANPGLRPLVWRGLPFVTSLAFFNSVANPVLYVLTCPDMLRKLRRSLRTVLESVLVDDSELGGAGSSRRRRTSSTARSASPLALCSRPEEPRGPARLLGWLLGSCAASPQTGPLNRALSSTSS

[14] = molecular target: Mitogen-activated protein kinase 14 (Homo sapiens) (UniProt Q16539); test: Inhibition of MAPK14
[15] = molecular target: T4, Glucocorticoid receptor (Homo sapiens) (UniProt P04150); test: Inhibition of NR3C1
T4 sequence (whole entry): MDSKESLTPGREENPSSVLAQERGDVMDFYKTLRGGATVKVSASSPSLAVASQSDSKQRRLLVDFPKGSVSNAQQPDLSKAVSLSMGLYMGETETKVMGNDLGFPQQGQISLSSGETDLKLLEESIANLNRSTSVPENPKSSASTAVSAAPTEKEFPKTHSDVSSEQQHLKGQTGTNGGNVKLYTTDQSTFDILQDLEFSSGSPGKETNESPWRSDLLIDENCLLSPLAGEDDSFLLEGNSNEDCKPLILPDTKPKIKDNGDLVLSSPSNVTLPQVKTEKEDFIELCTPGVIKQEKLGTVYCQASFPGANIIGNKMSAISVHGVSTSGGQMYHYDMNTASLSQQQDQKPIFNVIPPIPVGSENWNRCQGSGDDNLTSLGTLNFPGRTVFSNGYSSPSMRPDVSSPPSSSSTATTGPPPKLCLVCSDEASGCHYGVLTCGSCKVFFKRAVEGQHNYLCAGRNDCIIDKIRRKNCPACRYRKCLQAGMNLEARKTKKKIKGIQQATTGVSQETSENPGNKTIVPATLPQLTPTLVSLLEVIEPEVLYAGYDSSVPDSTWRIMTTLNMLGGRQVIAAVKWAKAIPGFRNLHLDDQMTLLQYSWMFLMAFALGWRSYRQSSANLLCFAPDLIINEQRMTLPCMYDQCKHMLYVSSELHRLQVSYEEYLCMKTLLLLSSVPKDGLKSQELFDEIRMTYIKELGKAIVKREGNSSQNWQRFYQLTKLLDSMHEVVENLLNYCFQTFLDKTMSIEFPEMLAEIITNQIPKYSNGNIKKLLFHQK

[16] = molecular target: Aldo-keto reductase family 1 member B1 (Homo sapiens) (UniProt P15121); test: Inhibition of AKR1B1
[17] = molecular target: Sodium-dependent dopamine transporter (Homo sapiens) (UniProt Q01959); test: Inhibition of SLC6A3
Sodium-dependent dopamine transporter (Homo sapiens), sequence (Q01959 whole entry): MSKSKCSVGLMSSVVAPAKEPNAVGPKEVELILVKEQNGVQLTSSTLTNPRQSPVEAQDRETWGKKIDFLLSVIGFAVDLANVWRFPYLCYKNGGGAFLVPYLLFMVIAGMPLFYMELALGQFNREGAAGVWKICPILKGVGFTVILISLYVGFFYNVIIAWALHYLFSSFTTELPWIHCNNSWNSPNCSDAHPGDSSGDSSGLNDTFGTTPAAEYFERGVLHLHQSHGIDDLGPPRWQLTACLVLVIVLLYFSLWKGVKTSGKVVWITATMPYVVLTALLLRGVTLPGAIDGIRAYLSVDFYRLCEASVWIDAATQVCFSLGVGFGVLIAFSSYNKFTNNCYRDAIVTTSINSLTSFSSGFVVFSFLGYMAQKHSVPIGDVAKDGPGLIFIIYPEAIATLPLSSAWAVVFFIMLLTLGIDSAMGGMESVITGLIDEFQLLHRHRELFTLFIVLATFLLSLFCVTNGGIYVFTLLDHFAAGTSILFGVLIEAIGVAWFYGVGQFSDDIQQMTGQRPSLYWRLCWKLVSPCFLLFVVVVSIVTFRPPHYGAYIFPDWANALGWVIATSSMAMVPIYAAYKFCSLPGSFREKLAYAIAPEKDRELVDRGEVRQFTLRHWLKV

CC(C)CC[C@@H](O)C(CC1CCCCC1)NC(=O)C(C)NC(=O)C(Cc1ccccc1)NC(=O)OC(C)(C)C (some centres undefined)
Activity [1]: 200 nM

Cn1c(C(=O)Nc2ccccc2C(=O)NC(Cc2ccccc2)C(=O)O)cc2ccccc21 (centres undefined)
Activity [2]: 350 nM

CC(C)(C)OC(=O)N[C@@H](Cc1ccccc1)C(=O)N1CCN(C(c2ccc(F)cc2)c2ccc(F)cc2)CC1
Activity [3]: 250 nM

CC(C)(C)OC(=O)NC(C(=O)N1CCC[C@H]1C(=O)NCC1CCC(N)CC1)c1ccccc1 (some centres undefined)
Activity [4]: 6.8 nM

CC(C)=CCCN1CCC(NC(=O)[C@@](O)(c2ccccc2)[C@H]2CCC(NC(=O)OCc3ccccc3)C2)CC1 (some centres undefined)
Activity [5]: 5.2 nM

COc1ccc(NC(=O)C(CS)Cc2ccccc2)cc1 (centres undefined)
Activity [6]: 26 nM

O=C(Nc1ncc([N+](=O)[O-])s1)C(c1ccccc1)c1ccccc1
Activity [3]: 250 nM

C=CCN(CC(=O)OCC)C(=O)/C(C)=C/c1ccc(C(=O)Nc2ccc(C(=N)N)cc2)cc1
Activity [7]: 65 nM

N[C@@H](C(=O)O)[C@H]1[C@H](CNC(=O)Nc2ccccc2)[C@H]1C(=O)O
Activity [8]: 530 nM

O=C(C[C@H](CCCc1ccc(Cl)cc1)C(=O)N[C@@H](CC1CCCCC1)C(=O)NCCc1ccccc1)NO
Activity [9]: 7.31 nM

COc1ccc(NC(=O)NC2N=C(c3ccccc3)c3ccccc3N(C)C2=O)cc1 (centres undefined)
Activity [2]: 165 nM

O=C(Nc1ccccc1)NC1CC(C(=O)O)Nc2cc(Cl)cc(Cl)c21 (centres undefined)
Activity [10]: 2 nM

COC(=O)N[C@H](C(=O)N(C)[C@@H](CN1CCCC1)c1ccccc1)c1ccccc1
Activity [11]: 178 nM

Cc1cccc(C[C@@H](NC(=O)C(c2ccccc2)c2ccccc2)C(=O)N[C@@H](C#N)COCc2ccccc2)c1
Activity [12]: 10.2 nM

CC(C)C[C@H](NC(=O)[C@@H](C)NC(=O)[C@@H](Cc1ccccc1)NC(=O)OC(C)(C)C)C(O)CSC(C)C (single isomer, unassigned)
Activity [1]: 700 nM

CCCC1(C(=O)Nc2cccc(F)c2)CCc2c(c3ccccc3n2CC(=O)O)C1 (centres undefined)
Activity [13]: 22 nM

O=C(CCC(NS(=O)(=O)c1ccc2oc3ccccc3c2c1)C(=O)O)NCCc1ccccc1 (centres undefined)
Activity [9]: 325 nM

O=C(O)C(Cc1ccccc1)NC(=O)[C@H](Cc1ccc2c(c1)oc1ccccc12)NCP(=O)(O)O (some centres undefined)
Activity [6]: 12 nM

CCc1cc(-c2ccn[nH]2)c(O)cc1OCCCOc1ccc(CC(=O)O)cc1
Activity [7]: 54 nM

CCOC(=O)CN(c1cc(C)cc(OCCc2ccc(C(=N)N)cc2)c1)S(=O)(=O)c1ccccc1Cl
Activity [4]: 300 nM

Fc1ccc(CNc2nccc(-c3c(-c4ccc(F)cc4)nc4occn34)n2)cc1
Activity [14]: 90.9 nM

C[C@@]12Cc3cnn(-c4ccc(F)cc4)c3C=C1CC[C@H]1C2=CC[C@H](C(F)(F)F)[C@H]1NCc1ccc(F)cc1
Activity [15]: 3 nM

O=C(O)Cc1nn(CC(=O)Nc2cccc(F)c2)c(=O)c2ccccc12
Activity [16]: 22 nM

CN1CC[C@H](c2ccc(Cl)cc2)[C@H](CSCC(=O)NCCc2ccccc2)C1
Activity [17]: 23 nM
